The test system of experiment [1] is Aspergillus fumigatus. Kind of experiment: Antimycotic in vitro activity, series dilution test (MIC), Aspergillus fumigatus. The conditions noted are these: Sabourand's milieu d'epreuve, 20° C., 96 hours. Details: unit not given here. In kind it is cell-based. How it is done:
(§1) Description of the experiment:
(§2) The in vitro tests were carried out in a series dilution test with germ inocula of an average of 5×10^4 germs/ml of substrate. The nutrient medium was (a) for dermatophytes and moulds: Sabourand's milieu d'epreuve and (b) for yeasts: meat extract/glucose broth.
(§3) The incubation temperature was 20° C. and the duration of incubation was 24 to 96 hours in the case of yeasts and 96 hours in the case of dermatophytes and moulds.

Experiment [2] relates to Torulopsis glabrata. The experiment is described as follows: Antimycotic in vitro activity, series dilution test (MIC), Torulopsis glabrata. It is filed as cell-based. The arrangement: unit not given here. The conditions noted are these: meat extract/glucose broth, 20° C., 24 to 96 hours. Here is the method:
as §1, §2, §3

The subject of experiment [3] is Candida albicans. The experiment is described as follows: Antimycotic in vitro activity, series dilution test (MIC), Candida albicans. It is filed as cell-based. Details: unit not given here. To be noted: meat extract/glucose broth, 20° C., 24 to 96 hours. How it is done: as §1, §2, §3
Experiment [4] concerns Trichophyton mentagr. Kind of experiment: Antimycotic in vitro activity, series dilution test (MIC), Trichophyton mentagr. To be noted: Sabourand's milieu d'epreuve, 20° C., 96 hours. The arrangement: unit not given here. It is filed as cell-based. Here is the method: as §1, §2, §3
Experiment [5] has as its system Microsporum canis. The experiment is described as follows: Antimycotic in vitro activity, series dilution test (MIC), Microsporum canis. It is filed as cell-based. The arrangement: unit not given here. To be noted: Sabourand's milieu d'epreuve, 20° C., 96 hours. Here is the method: as §1, §2, §3
For experiment [6], the system named is Candida cells. The experiment is described as follows: Antimycotic in vivo activity (oral) in candidosis of mice. Details: species or system Mice of the SPF-CF1 type. The conditions noted are these: 50-100 mg/kg. How it is done:
Description of the experiment
Mice of the SPF-CF1 type were infected intravenously with 1-2×10^6 logarithmically growing Candida cells, which are suspended in physiological sodium chloride solution. The animals were treated orally one hour before and seven hours after the infection, with, in each case, 50-100 mg/kg of body weight of the formulations.
Untreated animals died 3 to 6 days after infection. The survival rate on the 6th day after infection was about 5% in the case of untreated control animals.

The test system of experiment [7] is dermatophytes, moulds and yeasts. The experiment is described as follows: Antimycotic in vitro activity, series dilution test, overall comparison. It is filed as cell-based. How it is done:
as §1, §2, §3

Experiment [8] has as its system trichophyton of mentagrophytes. Kind of experiment: Antimicrobial in vivo activity (local) in the model of experimental guinea-pig trichophytosis. To be noted: once daily, 15% strength solution.

Here are results for 20 compounds from US4632932A, “Antimycotic agents” (Bayer Aktiengesellschaft, priority 1982, dated 1986).

A value given as a limit tells only on which side of the number the result lay.

Consider “1-(2-methylphenoxy)-3,3-dimethyl-2-(1,2,4-triazol-1-yl-methyl)-2-butanol [(C)]”, for which the MIC values in experiment [1] was > 64; in experiment [2], > 64; in experiment [3], 32; in experiment [4], 32.
On to “1-(2-methylphenoxy)-3,3-dimethyl-2-(imidazol-1-yl-methyl)-2-butanol [(B)]”, for which the MIC values is on record as 4 in experiment [5]; 32 in experiment [1]; > 64 in experiment [2]; 32 in experiment [3]; 4 in experiment [4].
With `CC(C)(C1OCCO1)C(O)(Cn1cncn1)c1ccc(Cl)cc1` (stereo not shown) [Example 3, 3-(1,3-dioxolan-2-yl)-2-(4-chlorophenyl)-3-methyl-1-(1,2,4-triazol-1-yl)-butan-2-ol], the “action compared with compounds (A), (B), (C) and (D)” value (“action compared with compounds” for short) in experiment [6] is “better action”. The “antimycotic action in vitro compared with compounds (A), (B), (C) and (D)” value in experiment [7] is “better antimycotic action”.
As for `CC(C)(C1OCCO1)C(O)(CCc1ccc(Cl)cc1Cl)Cn1cncn1` (stereo not shown) [Example 5, 1-(2,4-dichlorophenyl)-4-(1,3-dioxolan-2-yl)-4-methyl-3-(1,2,4-triazol-1-yl-methyl)-pentan-3-ol naphthalene-1,5-disulphonate], the “antimycotic action in vitro compared with compounds (A), (B), (C) and (D)” value in experiment [7] was “better antimycotic action”.
Turning to `CC(C)(C1OCCO1)C(O)(CCc1ccc(Cl)cc1)Cn1cncn1` (stereo not shown) [Example 7], the “action compared with compounds” value in experiment [6] was “better action”. Moreover, the “antimycotic action in vitro compared with compounds (A), (B), (C) and (D)” value in experiment [7] was “better antimycotic action”. Besides, the “action (statement in words)” value in experiment [8] is “an action or a good action”.
The like results for `CC1(C(O)(CCc2ccc(Cl)cc2Cl)Cn2cncn2)COCOC1` (stereo not shown) [Example 8] were, in that order, “better action”, “better antimycotic action” and “an action or a good action”.
The like results for `CC1(C(O)(CCc2ccc(Cl)cc2)Cn2cncn2)COCOC1` (stereo not shown) [Example 9] were, in that order, “better action”, “better antimycotic action” and “an action or a good action”.
The matching figures for `CC(C)(C1OCCO1)C(O)(C=Cc1ccc(Cl)cc1)Cn1cncn1` (stereo not shown) [Example 10]: “better action”, “better antimycotic action” and “an action or a good action”.
In the case of `CC(C)(C1OCCO1)C(O)(C=Cc1ccc(Cl)cc1Cl)Cn1cncn1` (stereo not shown) [Example 11], the “antimycotic action in vitro compared with compounds (A), (B), (C) and (D)” value in experiment [7] is on record as “better antimycotic action”.
The same measure, in the same setting: next, `CC1(C(O)(C=Cc2ccc(Cl)cc2)Cn2cncn2)COCOC1` (stereo not shown) [Example 12]: “better antimycotic action”.
Turning to `CC1(C(O)(C=Cc2ccc(Cl)cc2)Cn2cncn2)COCOC1` (stereo not shown) [Example 13], the “antimycotic action in vitro compared with compounds (A), (B), (C) and (D)” value in experiment [7] is on record as “better antimycotic action”.
For the compound `CC(C)(C1OCCO1)C(O)(COc1ccc(-c2ccccc2)cc1)Cn1cncn1` (stereo not shown) [Example 14], the “action compared with compounds” value in experiment [6] is “better action”. In addition, in experiment [7], the “antimycotic action in vitro compared with compounds (A), (B), (C) and (D)” value is reported as “better antimycotic action”. Moreover, the “action (statement in words)” value in experiment [8] is recorded as “an action or a good action”.
Take `CC(C)(C1OCCO1)C(O)(COc1ccc(Cl)cc1)Cn1cncn1` (stereo not shown) [Example 15]: the “action compared with compounds” value in experiment [6] was “better action”. Also, the “antimycotic action in vitro compared with compounds (A), (B), (C) and (D)” value in experiment [7] is listed as “better antimycotic action”.
The matching figures for `CC1(C(O)(COc2ccc(Cl)cc2)Cn2cncn2)COCOC1` (stereo not shown) [Example 16]: “better action” and “better antimycotic action”.
In the case of `CC(C)(C1OCCO1)C(O)(CCc1ccc(Cl)cc1)Cn1ccnc1` (stereo not shown) [Example 19], in experiment [6], the “action compared with compounds” value is given as “better action”. Besides, in experiment [7], the “antimycotic action in vitro compared with compounds (A), (B), (C) and (D)” value was “better antimycotic action”. Further, the “action (statement in words)” value in experiment [8] is listed as “an action or a good action”.
The matching figures for `CC(C)(C1OCCO1)C(O)(CCc1ccc(Cl)cc1Cl)Cn1ccnc1` (stereo not shown) [Example 20]: “better action”, “better antimycotic action” and “an action or a good action”.
As to `CC1(C(O)(CCc2ccc(Cl)cc2Cl)Cn2ccnc2)COCOC1` (stereo not shown) [Example 21], the “action compared with compounds” value in experiment [6] was “better action”. Moreover, the “antimycotic action in vitro compared with compounds (A), (B), (C) and (D)” value in experiment [7] is “better antimycotic action”. The “action (statement in words)” value in experiment [8] is recorded as “an action or a good action”.
For `CC1(C(O)(CCc2ccc(Cl)cc2)Cn2ccnc2)COCOC1` (stereo not shown) [Example 22], the “action compared with compounds” value in experiment [6] was “better action”. Further, in experiment [8], the “action (statement in words)” value was “an action or a good action”.
Consider `CC(C)(C1OCCO1)C(O)(C=Cc1ccc(Cl)cc1)Cn1ccnc1` (stereo not shown) [Example 23], for which the “action compared with compounds” value in experiment [6] is listed as “better action”. Moreover, the “antimycotic action in vitro compared with compounds (A), (B), (C) and (D)” value in experiment [7] is given as “better antimycotic action”. Also, in experiment [8], the “action (statement in words)” value is recorded as “an action or a good action”.
Turning to `CC1(C(O)(COc2ccc(Cl)cc2)Cn2ccnc2)COCOC1` (stereo not shown) [Example 26], the “action compared with compounds” value in experiment [6] is listed as “better action”.
